One experiment concerns KB cells. The experiment in a line: MTS cytotoxicity test with KB cells. Format: cell-based. As to conditions: Homo sapiens, read-out: IC50 KB. The source says: (§1) Human cancer cell lines, unless otherwise noted, are obtained from the American Type Culture Collection (Rockville, Md.). The following drug-sensitive parental cell lines, and their derived drug-resistant counterparts, are obtained from the originators as listed: (a) S1 (parental line from a subclone of human colon carcinoma line LS174T) and derived S1-M1-3.2 (herein called S1-M1) which expresses the MXR drug transporter protein, are provided by Dr. L. Greenberger, Wyeth Research (Rabindran, S. K., He, H., Singh, M., Brown, E., Collins, K. I., Annable, T., and Greenberger, L. M. Reversal of a novel multidrug resistance mechanism in human colon carcinoma cells by fumitremorgin C. Cancer Res., 58:5850-5858,1998); (b) parental HL-60 human promyelocytic leukemia line and derived HL-60/ADR, which expresses the MRP1 drug transporter protein, are provided by Dr. M. Center, University of Kansas (McGrath, T., and Center, M. S. Adriamycin resistance in HL60 cells in the absence of detectable P-glycoprotein. Biochem. Biophys. […] J. Biol. Chem., 261: 7762-7770,1986) via Dr. L. Greenberger, Wyeth Research.
(§2) The assay, which is sold in kit form by Promega (Madison, Wis.; CellTiter 96 AQueous Non-Radioactive Cell Proliferation Assay), is based on the conversion by viable cells, but not by dead cells, of the tetrazolium salt, MTS (3-(4,5-dimethylthiazol-2-yl)-5-(3-carboxymethoxyphenyl)-2-(4-sulphophenyl)-2H-tetrazolium, inner salt), into a water-soluble colored formazan which is detected by spectrophotometry. Compounds are tested at nine concentrations, in order to determine IC50 values. For the test procedure, cells are harvested by trypsinization (or, in the case of non-adherent cells, by simple resuspension), washed, counted and distributed to wells of 96-well flat-bottom microtiter plates at 1000 cells per well in 200 μL of medium. In addition, one row of wells on a separate plate received cells as above (“time 0” plate). All plates are incubated at 37° in humidified 5% CO2 in air for about 24 hr.
(§3) On day 2, compounds for test are diluted and added to wells. Compounds are dissolved in DMSO at 10 mg/mL. For each compound, nine serial 2-fold dilutions are prepared in DMSO. Ten μL of each dilution in DMSO is transferred to 100 μL of medium, mixed well, and then 5 μL of this dilution is transferred in quadruplicate to wells containing cells. […] Plates are returned to the incubator for three days. At the time of drug addition to the experimental plates, the MTS assay is run on the “time 0” plate. This produced the “time 0 MTS value” which is related to the number of viable cells per well at the time of drug addition.
(§4) After three days of culture with test compounds (day 5 overall), the MTS assay is done on all wells of the experimental plates. The absorbance values of the quadruplicate sample wells are averaged and divided by the average of the “time 0” values. […] The nine values for each compound are plotted against concentration, and the concentration that produced a relative color yield half way between the maximum and minimum is taken as the IC50 value.
(§5) The KB lines express different amounts of the P-glycoprotein (MDR1) membrane pump which produces resistance to the action of many cytotoxic compounds, including paclitaxel and vincristine. The parental KB line expresses no P-glycoprotein, KB-8-5 expresses moderate levels of the protein, and KB-V1 expresses very high levels.
A general note: Formazan colour is commonly taken as a measure of viable cells.

Another experiment concerns COLO 205 cells. The experiment in a line: MTS cytotoxicity test with COLO 205 cells. As to conditions: 3 days. Format: cell-based, human. An outline of the steps: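 COLO 205 human colon carcinoma cells, 1000 per well, exposed 3 days at 37° C to nine 2-fold dilutions, typical final top concentration 5 μM. MTS absorbance normalized to time-0 plate; IC50 is concentration giving colour yield midway between untreated and fully killed controls.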

A further experiment has as its system KB-8-5 cells. The experiment in a line: MTS cytotoxicity test with KB-8-5 cells (moderate P-glycoprotein). Format: cell-based, human. As to conditions: for IC50: Homo sapiens, read-out: IC50 KB 8.5; for Ratio 8.5/KB: IC50 on KB 8.5 cells/IC50 on KB cells.
Source text: as §1, §2, §3, §4, §5

The next experiment relates to KB-V1 cells. The experiment in a line: MTS cytotoxicity test with KB-V1 cells (very high P-glycoprotein). Format: cell-based, human. As to conditions: for IC50: Homo sapiens, KB-V1 cells, MTS; for Ratio VI/KB: IC50 on KB VI cells/IC50 on KB cells; for recognition by P-glycoprotein: inferred from IC50 on KB-V1 compared to parental KB line.
Source text: as §1, §2, §3, §4, §5

For a further experiment, the system named is S1 cells. Nature of the experiment: MTS cytotoxicity test with S1 cells. Format: cell-based. As to conditions: Homo sapiens.
Source text: as §1, §2, §3, §4
S1-M1 cells overexpress the MXR transporter which mediates resistance to some chemotherapeutics (Gottesman, M. M., Fojo, T., and Bates, S. E. Miltidrug resistance in cancer: role of ATP-dependent transporters. Nature Rev. Cancer, 2: 48-58, 2002). The IC50 values of representative examples of this invention, as well as reference compounds, on S1-M1 are compared to values on the sensitive parental S1 line.

Where two headings read alike, the source gives them in different places.

For `C[C@H](Nc1c(-c2c(F)cc(OCCCN(C)C)cc2F)c(Cl)nc2ncnn12)C(F)(F)F.Cl` [Example 1a, 5-chloro-6-{4-[3-(dimethylamino)propoxy]-2,6-difluorophenyl}-N-[(1S)-2,2,2-trifluoro-1-methylethyl][1,2,4]triazolo[1,5-a]pyrimidin-7-amine hydrogen chloride Salt], the half-maximal inhibitory concentration (IC50) in the experiment with KB cells (KB cells, MTS) amounted to 28 nM; in the experiment on COLO 205 cells (Homo sapiens, COLO 205, 72 h), 56 nM; in the experiment on KB-8-5 cells (KB-8-5 cells, MTS) it was 62 nM; in the experiment on KB-V1 cells, 103 nM; with S1 cells it was 73 nM. Besides, in the experiment on KB-8-5 cells, the “Ratio 8.5/KB” value is 2.2. Further, the “Ratio VI/KB” value with KB-V1 cells came out at 3.7. In addition, the “recognition by P-glycoprotein” value with KB-V1 cells was “show recognition by P-glycoprotein”.

With `CNCCCOc1cc(F)c(-c2c(Cl)nc3ncnn3c2N[C@@H](C)C(F)(F)F)c(F)c1.Cl` [Example 2a, 5-Chloro-6-{2,6-difluoro-4-[3-(methylamino)propoxy]phenyl}-N-[(1S)-2,2,2-trifluoro-1-methylethyl][1,2,4]triazolo[1,5-a]pyrimidin-7-amine hydrogen chloride], the IC50 in the experiment with KB cells (KB) amounted to 24 nM; with COLO 205 cells, 31 nM; with KB-8-5 cells, 64 nM; with KB-V1 cells, 1120 nM; with S1 cells, 70 nM. Moreover, the “Ratio VI/KB” value with KB-V1 cells is on record as 48. Further, the “recognition by P-glycoprotein” value in the experiment on KB-V1 cells was “show recognition by P-glycoprotein”.

For `CNCCCOc1cc(F)c(-c2c(Cl)nc3ncnn3c2NCC(F)(F)F)c(F)c1.Cl` [Example 3a, 5-Chloro-6-{2,6-difluoro-4-[3-(methylamino)propoxy]phenyl}-N-(2,2,2-trifluoroethyl)[1,2,4]triazolo[1,5-a]pyrimidin-7-amine hydrogen chloride Salt], the half-inhibitory concentration (IC50) in the experiment on KB cells (KB cells, MTS) turned out to be 18 nM; in the experiment on COLO 205 cells, 29 nM; with KB-8-5 cells (KB-8-5 cells, MTS), 69 nM; in the experiment on KB-V1 cells it was 2150 nM; in the experiment on S1 cells, 61 nM. Also, the “Ratio 8.5/KB” value in the experiment on KB-8-5 cells was found to be 3.8. The “Ratio VI/KB” value in the experiment on KB-V1 cells stood at 119. Also, in the experiment with KB-V1 cells, the “recognition by P-glycoprotein” value is listed as “show recognition by P-glycoprotein”.

As to `CN(C)CCCOc1cc(F)c(-c2c(Cl)nc3ncnn3c2NCC(F)(F)F)c(F)c1.Cl` [Example 4a, 5-Chloro-6-{4-[3-(dimethylamino)propoxy]-2,6-difluorophenyl}-N-(2,2,2-trifluoroethyl)[1,2,4]triazolo[1,5-a]pyrimidin-7-amine Hydrogen chloride Salt], the 50% inhibitory concentration (IC50) amounted to 24 nM in the experiment with KB cells (KB cells, MTS); 53 nM in the experiment with COLO 205 cells (Homo sapiens, COLO 205, 72 h); 58 nM in the experiment with KB-8-5 cells (KB-8-5 cells, MTS); 162 nM in the experiment on KB-V1 cells; 72 nM in the experiment on S1 cells. In addition, in the experiment on KB-V1 cells, the “Ratio VI/KB” value was found to be 7. Also, the “recognition by P-glycoprotein” value with KB-V1 cells is “show recognition by P-glycoprotein”.

Consider `C[C@H](Nc1c(-c2c(F)cc(OCCCO)cc2F)c(Cl)nc2ncnn12)C(F)(F)F` [Example 20, 3-[4-(5-Chloro-7-{[(1S)-2,2,2-trifluoro-1-methylethyl]amino}[1,2,4]triazolo[1,5-a]pyrimidin-6-yl)-3,5-difluorophenoxy]propan-1-ol], for which the IC50 in the experiment with KB cells (KB cells, MTS) turned out to be 57 nM; with COLO 205 cells (Homo sapiens, COLO 205, 72 h) it was 67 nM; in the experiment on KB-8-5 cells (KB-8-5 cells, MTS), 66 nM; with KB-V1 cells, 73 nM; in the experiment on S1 cells, 85 nM. Moreover, the “recognition by P-glycoprotein” value in the experiment with KB-V1 cells is reported as “not recognized at all by P-glycoprotein”.

For the compound `C[C@H](Nc1c(-c2c(F)cc(OCCCN(C)C)cc2F)c(Br)nc2ncnn12)C(F)(F)F` [Example 25, 5-Bromo-6-{4-[3-(dimethylamino)propoxy]-2,6-difluorophenyl}-N-[(1S)-2,2,2-trifluoro-1-methylethyl][1,2,4]triazolo[1,5-a]pyrimidin-7-amine], the concentration for half-maximal inhibition (IC50) was found to be 59 nM in the experiment on KB cells (KB cells, MTS); 96 nM in the experiment with COLO 205 cells (Homo sapiens, COLO 205, 72 h); 67 nM with KB-8-5 cells (KB-8-5 cells, MTS); 165 nM in the experiment with KB-V1 cells; 106 nM in the experiment with S1 cells. In addition, the “recognition by P-glycoprotein” value in the experiment with KB-V1 cells is recorded as “not recognized at all by P-glycoprotein”.

With `OCCCOc1cc(F)c(-c2c(Cl)nc3ncnn3c2C2CCCCCC2)c(F)c1` [Example 30, 3-[4-(5-Chloro-7-cycloheptyl[1,2,4]triazolo[1,5-a]pyrimidin-6-yl)-3,5-difluorophenoxy]propan-1-ol], the IC50 in the experiment on KB cells (KB cells, MTS) turned out to be 72 nM; in the experiment with COLO 205 cells (Homo sapiens, COLO 205, 72 h) it was 30 nM; in the experiment with KB-8-5 cells (KB-8-5 cells, MTS), 127 nM; with KB-V1 cells, 97 nM; with S1 cells, 66 nM. Also, the “recognition by P-glycoprotein” value in the experiment on KB-V1 cells is given as “not recognized at all by P-glycoprotein”.

Take `CNCCCOc1cc(F)c(-c2c(Cl)nc3ncnn3c2C2CCCCCC2)c(F)c1.O=C(O)C(F)(F)F` [Example 32, 3-[4-(5-Chloro-7-cycloheptyl[1,2,4]triazolo[1,5-a]pyrimidin-6-yl)-3,5-difluorophenoxy]-N-methylpropan-1-amine trifluoroacetic acid salt]: the IC50 in the experiment on KB cells (KB cells, MTS) turned out to be 11 nM; with COLO 205 cells (Homo sapiens, COLO 205, 72 h), 6.6 nM; with KB-8-5 cells (KB-8-5 cells, MTS), 15 nM; in the experiment on KB-V1 cells, 108 nM; in the experiment with S1 cells it was 11 nM. In addition, the “Ratio VI/KB” value with KB-V1 cells was found to be 9.9. Besides, the “recognition by P-glycoprotein” value with KB-V1 cells was “show recognition by P-glycoprotein”.

On to `CC(=O)O[C@H]1C(=O)[C@@]2(C)[C@H]([C@H](OC(=O)c3ccccc3)[C@]3(O)C[C@H](OC(=O)[C@H](O)[C@@H](NC(=O)c4ccccc4)c4ccccc4)C(C)=C1C3(C)C)[C@]1(OC(C)=O)CO[C@@H]1C[C@@H]2O` [Paclitaxel, reference compound], for which the IC50 in the experiment on KB cells (KB cells, MTS) was 2.9 nM; in the experiment on COLO 205 cells (Homo sapiens, COLO 205, 72 h) it was 3.3 nM; in the experiment on KB-8-5 cells (KB-8-5 cells, MTS), 56 nM; with KB-V1 cells, over 1000 nM; with S1 cells it was 8.1 nM. In addition, the “Ratio 8.5/KB” value in the experiment on KB-8-5 cells is 19. The “Ratio VI/KB” value in the experiment on KB-V1 cells and with KB-V1 cells (listed as paclitaxel) was over 345 in each case.

As to `CC[C@]1(O)C[C@H]2CN(CCc3c([nH]c4ccccc34)[C@@](C(=O)OC)(c3cc4c(cc3OC)N(C=O)[C@H]3[C@@](O)(C(=O)OC)[C@H](OC(C)=O)[C@]5(CC)C=CCN6CC[C@]43[C@@H]65)C2)C1` [Vincristine, reference compound], the half-maximal inhibitory concentration (IC50) is 6.4 nM with KB cells (KB cells, MTS); 2.6 nM in the experiment with COLO 205 cells (Homo sapiens, COLO 205, 72 h); 72 nM in the experiment on KB-8-5 cells (KB-8-5 cells, MTS); over 1000 nM in the experiment with KB-V1 cells; 5.6 nM with S1 cells. The “Ratio 8.5/KB” value in the experiment with KB-8-5 cells worked out at 11. In addition, the “Ratio VI/KB” value in the experiment with KB-V1 cells and in the experiment on KB-V1 cells (listed as vincristine) was over 156 in each case.

As a reminder, the IC50 is the point on the concentration scale where inhibition reaches its midpoint.

(Values after patent US7507739B2, “6-[(substituted)phenyl]triazolopyrimidines as anticancer agents” (Wyeth, priority 2003, dated 2009).)
